For 16 molecules, IC50 results are on record in patent publication US8354414B2, “Substituted bicyclic pyrimidines” (Cephalon, Inc, priority 2006, dated 2013).

Read-outs that look alike come from different tables or passages of the source. A value given as a limit tells only on which side of the number the result lay.

One assay has as its target T1, His6-GSK-3β (Homo sapiens, UniProt P49841).
T1 construct: made in house; host or cells: Sf21 insect cells (baculovirus)
The assay is described as follows: Inhibition of His6-GSK-3β kinase activity (ELISA-based format, time-resolved fluorescence readout). Format: biochemical. The conditions noted are these: read-out: GSK3β IC50. The source says: Full-length GSK-3β was amplified from a sequence-verified I.M.A.G.E. EST acquired from Research Genetics (Invitrogen, Clone ID# CSODB003YJ02). The final sequence-verified cDNA contained the coding region for a NH2-terminal tag, which encoded for 6 histidines and then eight vector-encoded amino acids prior to the start of GSK3β, which contained by # 43-1342 of Genbank Accession # NM_002093, encoding amino acids #2-419. The predicted molecular weight of the tagged, 435 amino acid, full-length protein is 48.5 kDa. The major structural element of this protein is the kinase domain, which is from amino acids #56-340. Recombinant baculoviral DNA was prepared by transposition in E. coli (BAC-TO-BAC system: Invitrogen) and the virus generated and amplified in Sf21 insect cells. A suspension culture of Sf21 cells was infected at an MOI of 0.7 and cell density of 1.5×10^6 cells/mL in Excell 420 serum-free media (JRH BioScience) and harvested 65 h after infection. The 100,000×g supernatant solution was used for purification. Expression was confirmed by running samples on SDS-PAGE, followed by immunoblot analysis utilizing both a Penta-HIS antibody (Qiagen #34660) and a GSK-3α/GSK-3β antibody (Calbiochem #368662, data not shown). The His6-tagged protein was purified to in one step by Ni-NTA affinity chromatography.
Inhibitory effects of compounds on baculoviral GSK-3β kinase activity were evaluated using an ELISA-based format in a 384-well FluoroNunc Maxisorp plate (Cat # 460372) with a time-resolved fluorescence readout. Briefly, each plate was coated with 50 μl/well of 20 μg/ml substrate solution (recombinant GST-Rb) in Tris-buffered saline (TBS). The GSK-3β assay mixture (total volume=50 μl/well) consisting of 50 mM HEPES (pH 7.2), 20 μM ATP, 10 mM MgCl2, 5 mM EGTA, 25 mM β-glycerophosphate, 0.05% BSA, 2.5% DMSO, and various concentrations of test compound were then added to the assay plate. Enzyme (200 ng/ml His6-GSK-3β) was then added and the reaction was allowed to proceed at 37° C. for 30 minutes. Detection of the phosphorylated product was performed by adding 50 μl/well of phospho-Rb (Ser-780) antibody (Cell Signaling # 9307) diluted 1:10,000 in antibody dilution buffer (0.1% BSA in TBST). After 1-hour incubation at 37° C., 50 μl/well of Eu-N1 labelled anti-rabbit antibody (Wallac # AD0105; 1:50,000 in antibody dilution buffer) was added. Incubation at 37° C. then proceeded for 1 hour, followed by addition of 50 μl enhancement solution (Wallac #1244-105). The plate was gently agitated and after a few minutes, the fluorescence of the resulting solution was measured using a Multilabel Reader (Victor2 Model # 1420-018 or Envision Model 2100). Inhibition data were analyzed using ActivityBase and IC50 curves were generated using XLFit 3.0.5.

The target of the next assay is T2, CDK5/GST-p25 (Homo sapiens, UniProt Q00535).
T2 construct: The final construct, encoding for full-length human CDK5; made in house; host or cells: Sf21 insect cells (baculovirus co-infection)
T2 sequence (Q00535 whole entry): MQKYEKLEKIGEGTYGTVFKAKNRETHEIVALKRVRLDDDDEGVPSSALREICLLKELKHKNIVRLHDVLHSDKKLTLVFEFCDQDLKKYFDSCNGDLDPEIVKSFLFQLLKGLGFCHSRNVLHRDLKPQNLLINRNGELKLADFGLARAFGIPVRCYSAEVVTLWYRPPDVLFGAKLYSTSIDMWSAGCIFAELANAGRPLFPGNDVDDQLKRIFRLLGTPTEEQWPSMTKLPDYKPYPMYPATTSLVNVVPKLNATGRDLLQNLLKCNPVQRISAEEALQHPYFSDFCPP
T2 sequence (Q15078 108-307 partner limits assumed): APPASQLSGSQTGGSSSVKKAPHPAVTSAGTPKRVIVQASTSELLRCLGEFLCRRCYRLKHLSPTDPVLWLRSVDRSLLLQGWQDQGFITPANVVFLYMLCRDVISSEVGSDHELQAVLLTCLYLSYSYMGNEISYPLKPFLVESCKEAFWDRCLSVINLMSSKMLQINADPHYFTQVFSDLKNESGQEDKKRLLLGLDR
Nature of the assay: Inhibition of CDK5/GST-p25 kinase activity (ELISA with time-resolved fluorescence readout). The assay is classed as biochemical. As for the experimental part: Two recombinant baculoviral constructs were created, one encoding for human CDK5 and the other encoding for human p25 with an amino-terminal glutathione-S-transferase (GST) tag. PCR amplification of full-length CDK5 was performed utilizing human brain cDNA as a template and Pfu Turbo polymerase (Strategene). The PCR product from this reaction was subcloned into the baculoviral expression vector pFASTBAC1 (Gibco/BRL). The final construct, encoding for full-length human CDK5 (base pairs 25-903 of GenBank Accession #NM_004935), is 292 amino acids long with a predicted MW of 33.3 kDa.
For p25, the active truncated form of p35, amino acids 108-307 were PCR-amplified from human fetal brain cDNA (Clontech QUICK-Clone cDNA) using the Advantage 2 PCR system (Clontech). The PCR product was subcloned into the baculoviral transfer vector pFBGSTP (an engineered derivative of the baculoviral transfer vector pFASTBAC1). The final baculoviral construct encodes for base pairs 419-1021 of GenBank Accession #NM_003885, with an amino-terminal GST tag. The expressed GST-p25 is 444 amino acids long with a predicted MW of 50.3 kDa.
The CDK5/GST-p25 complex was generated by coexpression. Sf21 cells were cultured in TNM-FHS media at a density of 1.5×10^6 cells/mL and infected with each recombinant virus at MOI values of 5 (for CDK5) and 10 (for GST-p25). The cells were harvested 40 h after infection. For purification, the 100,000×g supernatant solution was used. Expression was confirmed by running samples on SDS-PAGE, followed by immunoblot analysis utilizing antibodies against CDK5 (anti-CDK5 (268-283); Calbiochem #219449) and p35 (Santa Cruz #sc820). The CDK5/GST-p25 complex was purified by glutathione affinity chromatography.
Compounds were tested for their ability to inhibit the kinase activity of recombinant baculoviral CDK5/GST-p25 using an enzyme-linked immunosorbent assay (ELISA) with time-resolved fluorescence (TRF) readout. Briefly, each 384-well FluoroNunc Maxisorp plate (Cat # 460372) plate was coated with 50 μl/well of 50 μg/ml substrate solution (recombinant GST-Rb(773-928)) in Tris-buffered saline (TBS). The CDK5/GST-p25 assay mixture (total volume=50 μl/well) consisting of 20 mM HEPES (pH 7.2), 10 μM ATP, 10 mM MgCl2, 5 mM EGTA, 25 mM β-glycerophosphate, 0.05% BSA, 2.5% DMSO, and various concentrations of test compound were then added to the assay plate. Enzyme (2 ng/ml CDK5/GST-p25) was added and the reaction was allowed to proceed at 37° C. for 20 minutes. Detection of the phosphorylated product was performed by adding 50 μl/well of phospho-Rb (Ser-780) antibody (Cell Signaling # 9307) diluted 1:10,000 in antibody dilution buffer (0.1% BSA in TBST). After 1-hour incubation at 37° C., 50 μl/well of Eu-Nl labelled anti-rabbit antibody (Wallac # AD0105; 1:50,000 in antibody dilution buffer) was added. Incubation at 37° C. then proceeded for 1 hour, followed by addition of 50 μl enhancement solution (Wallac #1244-105). The plate was gently agitated and after a few minutes, the fluorescence of the resulting solution was measured using a Multilabel Reader (Victor2 Model # 1420-018 or Envision Model # 2100). Inhibition data were analyzed using ActivityBase and IC50 curves were generated using XLFit 3.0.5.
(An ELISA detects its analyte on a solid surface through an enzyme-linked reagent.)

For orientation: IC50 means the concentration that gives 50% inhibition.

T1 sequence (P49841 2-419): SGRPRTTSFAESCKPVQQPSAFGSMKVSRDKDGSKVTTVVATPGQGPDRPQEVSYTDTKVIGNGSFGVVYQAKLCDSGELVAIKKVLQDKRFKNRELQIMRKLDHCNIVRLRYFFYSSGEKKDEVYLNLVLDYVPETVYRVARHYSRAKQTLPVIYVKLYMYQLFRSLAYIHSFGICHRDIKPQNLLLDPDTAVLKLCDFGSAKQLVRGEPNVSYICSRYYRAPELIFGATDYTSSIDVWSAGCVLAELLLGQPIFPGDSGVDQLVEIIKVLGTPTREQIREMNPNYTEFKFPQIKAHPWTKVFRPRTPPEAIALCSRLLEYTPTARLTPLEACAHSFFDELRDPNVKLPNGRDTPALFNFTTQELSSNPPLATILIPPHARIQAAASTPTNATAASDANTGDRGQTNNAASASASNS

Consider `N#Cc1ccc2c(c1)C(c1nc(NCCc3ccccc3)nc3nn(C4CCCC4)cc13)C(=O)N2` (centres unmarked) [Example 134, 3-(2-cyclopentyl-6-2-phenethylamino-2H-pyrazolo [3,4-d]pyrimidin-4-yl)-2-oxo-2,3-dihydro-1H-indole-5-carbonitrile], for which the IC50 on His6-GSK-3β (class symbols) was under 300 nM; at CDK5/GST-p25 (numeric bounds) it was over 3000 nM.

For `N#Cc1ccc2c(c1)C(c1nc(NCc3ccc(C(F)(F)F)nc3)nc3nn(C4CCCC4)cc13)C(=O)N2` (centres unmarked) [Example 173, 3-{2-Cyclopentyl-6-[(6-trifluoromethyl-pyridin-3-ylmethyl)-amino]-2H-pyrazolo [3,4-d]pyrimidin-4-yl}-2-oxo-2,3-dihydro-1H-indole-5-carbonitrile], the IC50 at His6-GSK-3β (class symbols) and against CDK5/GST-p25 (class symbols) was under 300 nM each time.

Regarding `COCCNc1nc(C2C(=O)Nc3ccc(C#N)cc32)c2cn(C3CCCC3)nc2n1` (centres unmarked) [Example 174, 3-[2-Cyclopentyl-6-(2-methoxy-ethylamino)-2H-pyrazolo [3,4-d]pyrimidin-4-yl]-2-oxo-2,3-dihydro-1H-indole-5-carbonitrile], the IC50 at His6-GSK-3β (class symbols) and at CDK5/GST-p25 (class symbols) was under 300 nM each time.

With `N#Cc1ccc2c(c1)C(c1nc(NCCCN3CCOCC3)nc3c1CCC3)C(=O)N2` (centres unmarked) [Example 340, 3-[2-(3-Morpholin-4-yl-propylamino)-6,7-dihydro-5H-cyclopentapyrimidin-4-yl]-2-oxo-2,3-dihydro-1H-indole-5-carbonitrile], the IC50 on His6-GSK-3β (class symbols) and against CDK5/GST-p25 (class symbols) was 300 to 3000 nM each time.

Turning to `O=C1Nc2ccc([N+](=O)[O-])cc2C1c1ncnc2nn(C3CCCC3)cc12` (centres unmarked) [Example 33, 3-(2-Cyclopentyl-2H-pyrazolo[3,4-d]pyrimidin-4-yl)-5-nitro-1,3-dihydro-indol-2-one], the IC50 at His6-GSK-3β (class symbols) and on CDK5/GST-p25 (class symbols) was under 300 nM in each case.

`N#Cc1ccc2c(c1)C(c1nc(N3CCN(CCc4ccccn4)CC3)nc3nn(C4CCCC4)cc13)C(=O)N2` (centres unmarked) [Example 129, 3-{2-cyclopentyl-6-[4-(2-pyridin-2-yl-ethyl)-piperazin-1-yl]-2H-pyrazolo [3,4-d]pyrimidin-4-yl}-2-oxo-2,3-dihydro-1H-indole-5-carbonitrile]: the IC50 at His6-GSK-3β (class symbols) is under 300 nM; on CDK5/GST-p25 (class symbols) it was over 10000 nM.

For `CCCn1cc2c(C3C(=O)Nc4ccc(Br)cc43)nc(NC[C@@H](O)CO)nc2n1` (stereo partly drawn) [Example 368, 5-Bromo-3-[6-((R)-2,3-dihydroxy-propylamino)-2-propyl-2H-pyrazolo[3,4-d]pyrimidin-4-yl]-1,3-dihydro-indol-2-one], the IC50 at His6-GSK-3β (class symbols) and at CDK5/GST-p25 (class symbols) was under 300 nM in each case.

`CNc1nc(C2C(=O)Nc3ccc(C#N)cc32)c2cn(C3CCCC3)nc2n1` (centres unmarked) [Example 115, 3-(2-cyclopentyl-6-methylamino-2H-pyrazolo[3,4-d]pyrimidin-4-yl)-2-oxo-2,3-dihydro-1H-indole-5-carbonitrile]: the IC50 at His6-GSK-3β (class symbols) and on CDK5/GST-p25 (class symbols) was under 300 nM in each case.

As to `N#Cc1ccc2c(c1)C(c1nc(NCc3cccnc3)nc3nn(C4CCCC4)cc13)C(=O)N2` (centres unmarked) [Example 133, 3-{2-cyclopentyl-6-[(pyridin-3-ylmethyl)amino]-2H-pyrazolo[3,4-d]pyrimidin-4-yl}-2-oxo-2,3-dihydro-1H-indole-5-carbonitrile], the IC50 at His6-GSK-3β (class symbols) and against CDK5/GST-p25 (class symbols) was under 300 nM each time.

For the molecule `O=C1Nc2ccc(Cl)cc2C1c1nc(NCCN2CCOCC2)nc2c1CCC2` (centres unmarked) [Example 324, 5-Chloro-3-[2-(2-morpholin-4-yl-ethylamino)-6,7-dihydro-5H-cyclopentapyrimidin-4-yl]-1,3-dihydro-indol-2-one], the IC50 at His6-GSK-3β (numeric bounds) and on CDK5/GST-p25 (numeric bounds) was over 3000 nM in each case.

Take `O=C1Nc2ccc(Cl)cc2C1c1nc(Cl)nc2c1CCC2` (centres unmarked) [Example 316, 5-Chloro-3-(2-chloro-6,7-dihydro-5H-cyclopentapyrimidin-4-yl)-1,3-dihydro-inodol-2-one]: the IC50 at His6-GSK-3β (class symbols) and at CDK5/GST-p25 (class symbols) was over 10000 nM throughout.

`N#Cc1ccc2c(c1)C(c1nc(NCCN3CCOCC3)nc3c1CCC3)C(=O)N2` (centres unmarked) [Example 341, 3-[2-(2-Morpholin-4-yl-ethylamino)-6,7-dihydro-5H-cyclopentapyrimidin-4-yl]-2-oxo-2,3-dihydro-1H-indole-5-carbonitrile]: the IC50 on His6-GSK-3β (class symbols) and against CDK5/GST-p25 (class symbols) was 300 to 3000 nM each time.

Regarding `O=C1Nc2ccc(Br)cc2C1c1nc(NCc2ccncc2)nc2nn(C3CCCC3)cc12` (centres unmarked) [Example 180, 5-Bromo-3-{2-cyclopentyl-6-[(pyridin-4-ylmethyl)-amino]-2H-pyrazolo[3,4-d]pyrimidin-4-yl}-1,3-dihydro-1H-indol-2-one], the IC50 on His6-GSK-3β (class symbols) and at CDK5/GST-p25 (class symbols) was under 300 nM throughout.

Regarding `N#Cc1ccc2c(c1)C(c1nc(NCCCN3CCOCC3)nc3nn(C4CCCC4)cc13)C(=O)N2` (centres unmarked) [Example 139, 3-[2-cyclopentyl-6-(3-morpholin-4-yl-propylamino)-2H-pyrazolo[3,4-d]pyrimidin-4-yl]-2-oxo-2,3-dihydro-1H-indole-5-carbonitrile], the IC50 at His6-GSK-3β (class symbols) and against CDK5/GST-p25 (class symbols) was under 300 nM throughout.

For `COc1ccc(Nc2nc3c(c(C4C(=O)Nc5ccc(C#N)cc54)n2)CCC3)cn1` (centres unmarked) [Example 352, 3-[2-(6-Methoxy-pyridin-3-ylamino)-6,7-dihydro-5H-cyclopentapyrimidin-4-yl]-2-oxo-2,3-dihydro-1H-indole-5-carbonitrile], the half-maximal inhibitory concentration (IC50) at His6-GSK-3β (class symbols) and against CDK5/GST-p25 (class symbols) was over 10000 nM each time.

As for `O=C1Nc2ccc(F)cc2C1c1nc(Cl)nc2c1CCC2` (centres unmarked) [Example 315, 3-(2-Chloro-6,7-dihydro-5H-cyclopentapyrimidin-4-yl)-5-fluoro-1,3-dihydro-indol-2-one], the IC50 on His6-GSK-3β (class symbols) and against CDK5/GST-p25 (class symbols) was over 10000 nM in each case.
